This is an account of results in BindingDB's records for PubMed 11306677 (Upr 9023, 2001).

Where “and” joins values, the source holds several entries; their conditions need not be identical. Equal entries are not always repeated.

In test [1] the target is Metabotropic glutamate receptor 1 (Rattus norvegicus, UniProt P23385).
For test [2], the target named is Metabotropic glutamate receptor 2 (Homo sapiens, UniProt Q14416).
The target in test [3] is Metabotropic glutamate receptor 5 (Rattus norvegicus, UniProt P31424).
Metabotropic glutamate receptor 5, sequence (P31424 whole entry): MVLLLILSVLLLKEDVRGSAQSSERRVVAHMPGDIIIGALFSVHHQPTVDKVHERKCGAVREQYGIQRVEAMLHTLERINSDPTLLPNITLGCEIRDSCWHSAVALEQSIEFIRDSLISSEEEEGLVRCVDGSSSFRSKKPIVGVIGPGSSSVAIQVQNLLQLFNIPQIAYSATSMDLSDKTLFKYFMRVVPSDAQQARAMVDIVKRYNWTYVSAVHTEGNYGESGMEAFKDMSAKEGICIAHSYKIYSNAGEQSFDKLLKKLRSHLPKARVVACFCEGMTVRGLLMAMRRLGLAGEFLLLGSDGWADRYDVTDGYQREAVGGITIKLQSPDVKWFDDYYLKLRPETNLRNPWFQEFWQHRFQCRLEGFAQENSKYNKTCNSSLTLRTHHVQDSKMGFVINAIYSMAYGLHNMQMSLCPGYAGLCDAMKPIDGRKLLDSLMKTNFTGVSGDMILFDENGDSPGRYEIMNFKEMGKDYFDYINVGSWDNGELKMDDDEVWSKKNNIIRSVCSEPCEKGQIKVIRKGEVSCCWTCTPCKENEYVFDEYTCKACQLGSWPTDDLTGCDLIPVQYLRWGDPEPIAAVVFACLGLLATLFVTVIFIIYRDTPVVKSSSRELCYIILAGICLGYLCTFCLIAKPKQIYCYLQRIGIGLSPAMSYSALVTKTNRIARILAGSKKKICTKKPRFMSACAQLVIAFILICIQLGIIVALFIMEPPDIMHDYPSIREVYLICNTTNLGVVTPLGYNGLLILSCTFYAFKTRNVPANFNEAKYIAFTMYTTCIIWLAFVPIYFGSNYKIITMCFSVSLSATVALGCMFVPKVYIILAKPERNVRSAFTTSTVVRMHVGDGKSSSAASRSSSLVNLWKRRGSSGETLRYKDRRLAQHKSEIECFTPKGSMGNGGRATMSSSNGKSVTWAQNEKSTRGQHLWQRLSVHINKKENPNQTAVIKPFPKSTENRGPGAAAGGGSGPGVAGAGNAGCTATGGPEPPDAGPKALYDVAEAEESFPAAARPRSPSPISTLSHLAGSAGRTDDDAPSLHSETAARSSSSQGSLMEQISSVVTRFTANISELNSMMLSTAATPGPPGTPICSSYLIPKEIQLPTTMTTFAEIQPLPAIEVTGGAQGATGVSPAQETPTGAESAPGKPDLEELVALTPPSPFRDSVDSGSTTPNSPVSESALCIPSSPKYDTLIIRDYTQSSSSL

Metabotropic glutamate receptor 1, sequence (P23385 whole entry): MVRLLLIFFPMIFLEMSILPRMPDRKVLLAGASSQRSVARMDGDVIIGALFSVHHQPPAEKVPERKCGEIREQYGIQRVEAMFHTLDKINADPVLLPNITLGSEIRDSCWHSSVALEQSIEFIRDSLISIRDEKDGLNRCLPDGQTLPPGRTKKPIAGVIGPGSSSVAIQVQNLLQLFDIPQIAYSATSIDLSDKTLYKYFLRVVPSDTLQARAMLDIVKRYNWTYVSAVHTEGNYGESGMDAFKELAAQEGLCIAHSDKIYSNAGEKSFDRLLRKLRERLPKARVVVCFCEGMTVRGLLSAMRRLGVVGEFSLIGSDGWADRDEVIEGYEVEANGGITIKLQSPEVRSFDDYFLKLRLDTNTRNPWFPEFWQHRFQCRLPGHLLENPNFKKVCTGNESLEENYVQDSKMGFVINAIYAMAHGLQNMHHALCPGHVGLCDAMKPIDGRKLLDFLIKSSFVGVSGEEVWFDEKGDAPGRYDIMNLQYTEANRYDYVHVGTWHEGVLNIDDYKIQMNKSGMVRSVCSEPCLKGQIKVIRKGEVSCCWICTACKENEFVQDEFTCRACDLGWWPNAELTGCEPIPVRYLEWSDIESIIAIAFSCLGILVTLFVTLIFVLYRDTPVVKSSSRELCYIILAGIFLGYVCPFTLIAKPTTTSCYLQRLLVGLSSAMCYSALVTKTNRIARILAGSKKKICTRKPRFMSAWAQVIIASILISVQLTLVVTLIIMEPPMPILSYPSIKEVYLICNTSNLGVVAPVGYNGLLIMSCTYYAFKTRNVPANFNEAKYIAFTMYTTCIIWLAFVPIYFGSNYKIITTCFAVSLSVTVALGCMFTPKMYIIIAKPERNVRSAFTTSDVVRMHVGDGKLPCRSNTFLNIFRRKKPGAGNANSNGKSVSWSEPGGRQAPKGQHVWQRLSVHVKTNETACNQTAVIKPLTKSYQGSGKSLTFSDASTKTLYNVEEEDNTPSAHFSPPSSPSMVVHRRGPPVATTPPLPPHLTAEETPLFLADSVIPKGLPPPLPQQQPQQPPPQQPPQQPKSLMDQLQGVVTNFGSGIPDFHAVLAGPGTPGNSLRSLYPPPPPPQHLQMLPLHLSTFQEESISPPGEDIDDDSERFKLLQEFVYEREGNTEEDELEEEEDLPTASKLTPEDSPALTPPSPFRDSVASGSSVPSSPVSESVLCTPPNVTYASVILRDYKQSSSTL
Metabotropic glutamate receptor 2, sequence (Q14416 whole entry): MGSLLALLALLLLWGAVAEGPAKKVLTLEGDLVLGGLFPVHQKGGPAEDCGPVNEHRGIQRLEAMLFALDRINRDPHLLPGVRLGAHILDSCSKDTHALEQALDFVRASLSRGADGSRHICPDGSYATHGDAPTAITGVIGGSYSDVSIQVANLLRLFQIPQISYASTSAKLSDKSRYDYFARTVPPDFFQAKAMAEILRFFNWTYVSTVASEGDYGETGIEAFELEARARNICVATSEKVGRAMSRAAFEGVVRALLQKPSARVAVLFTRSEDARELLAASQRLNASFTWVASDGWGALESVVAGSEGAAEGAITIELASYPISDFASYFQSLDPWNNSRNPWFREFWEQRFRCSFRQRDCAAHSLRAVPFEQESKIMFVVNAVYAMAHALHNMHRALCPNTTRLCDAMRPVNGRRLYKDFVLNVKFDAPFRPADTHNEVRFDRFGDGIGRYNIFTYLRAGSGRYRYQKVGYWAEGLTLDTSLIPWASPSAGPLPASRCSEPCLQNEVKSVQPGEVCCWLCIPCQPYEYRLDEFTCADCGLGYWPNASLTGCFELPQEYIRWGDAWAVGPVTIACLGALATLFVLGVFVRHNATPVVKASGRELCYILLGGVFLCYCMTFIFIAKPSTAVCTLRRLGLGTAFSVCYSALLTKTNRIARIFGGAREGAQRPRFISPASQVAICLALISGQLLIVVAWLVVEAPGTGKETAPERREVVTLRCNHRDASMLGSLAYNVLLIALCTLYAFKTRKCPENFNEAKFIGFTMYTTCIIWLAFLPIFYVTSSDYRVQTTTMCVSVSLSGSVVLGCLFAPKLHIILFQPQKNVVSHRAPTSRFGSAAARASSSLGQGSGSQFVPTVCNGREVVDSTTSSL

Regarding `C=C1C[C@@H]2COC(=O)[C@]2(Cc2ccc3ccccc3c2)C1`, the Ki (commonly the dissociation constant of the complex between target and ligand, obtained from inhibition or displacement) was over 10000 nM in test [1]; 140 nM in test [2]; 240 nM and 500 nM in test [3].
